This passage reports Ratio IC50 and IC50 results from ChEMBL document CHEMBL1156264, “Synthesis and structure-activity relationships of dimeric peptide antagonists of the human immunoglobulin G-human neonatal Fc receptor (IgG-FcRn) interaction” (J Med Chem, 2010).

Numbered stars: 1 amine (or outer) side, 2 acyl side, 3 side chain; on linkers, the order of the positions; unused ones are H or OH. Bridge positions count the residues as written; N and C are the ends. Square brackets hold non-standard residues; d marks the D form. Peptide text beside a SMILES is read from it. I, II: the chains in the order shown. X3 = CN(CCCNC(=O)CCNC(=O)CCSCC(=O)[*:1])CCCNC(=O)CCNC(=O)CCSCC(=O)[*:2]; Phe(4-guanidino) = N=C(N)Nc1ccc(C[C@H](N)C(=O)O)cc1; X1 = O=C(C(=O)[*:2])[C@H](Cc1ccc(O)cc1)N[*:1]; NHCH2CH2N(Me)CH2CO = CN(CCN[*:1])CC(=O)[*:2]; NMeL = CN[C@@H](CC(C)C)C(=O)O; Pen = CC(C)(S)[C@H](N)C(=O)O; Suc = O=C(CCC(=O)[*:2])[*:1]; Sar = CNCC(=O)O

What is called IC50 is the point on the concentration scale where inhibition reaches its midpoint. A higher IC50 goes with weaker potency in that assay.

The target in the first assay is T1, IgG receptor FcRn large subunit p51 (Homo sapiens, UniProt P55899). In words: Ratio of RF-Pen-TGHFG-Sar-NMeLeu-YPC IC50 to compound IC50 for soluble human FcRn.
T1 sequence (P55899 whole entry): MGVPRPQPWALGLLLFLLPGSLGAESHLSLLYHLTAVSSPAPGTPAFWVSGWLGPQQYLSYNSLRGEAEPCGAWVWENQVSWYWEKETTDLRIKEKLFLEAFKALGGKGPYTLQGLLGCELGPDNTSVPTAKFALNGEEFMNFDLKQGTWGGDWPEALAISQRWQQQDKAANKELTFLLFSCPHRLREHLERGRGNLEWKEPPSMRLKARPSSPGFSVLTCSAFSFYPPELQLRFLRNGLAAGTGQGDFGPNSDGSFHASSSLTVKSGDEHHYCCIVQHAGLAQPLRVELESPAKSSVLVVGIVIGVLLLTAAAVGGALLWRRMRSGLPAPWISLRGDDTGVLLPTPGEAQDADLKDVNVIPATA
With `CC(C)C[C@H]1C(=O)N[C@@H](Cc2ccc(O)cc2)C(=O)C(=O)N2CCC[C@H]2C(=O)N[C@H](C(N)=O)CSSC(C)(C)[C@H](NC(=O)[C@H](Cc2ccccc2)NC(=O)[C@H](CCCNC(=N)N)NC(=O)CCNC(=O)CCNC(=O)CCNC(=O)CN(C)CCNC(=O)CCC(=O)N[C@@H](CCCNC(=N)N)C(=O)N[C@@H](Cc2ccccc2)C(=O)N[C@@H]2C(=O)N[C@@H]([C@@H](C)O)C(=O)NCC(=O)N[C@@H](Cc3c[nH]cn3)C(=O)N[C@@H](Cc3ccccc3)C(=O)NCC(=O)N(C)CC(=O)N(C)[C@@H](CC(C)C)C(=O)N[C@@H](Cc3ccc(O)cc3)C(=O)C(=O)N3CCC[C@H]3C(=O)N[C@H](C(N)=O)CSSC2(C)C)C(=O)N[C@@H]([C@@H](C)O)C(=O)NCC(=O)N[C@@H](Cc2c[nH]cn2)C(=O)N[C@@H](Cc2ccccc2)C(=O)NCC(=O)N(C)CC(=O)N1C`, the Ratio IC50 worked out at 220.

The next assay has as its target T1, IgG receptor FcRn large subunit p51. The assay can be described thus: Inhibition of IgG binding to soluble human FcRn after 2 hrs by competition ELISA. A general note: An ELISA detects its analyte on a solid surface through an enzyme-linked reagent.
Molecule `CC(C)C[C@H]1C(=O)N[C@@H](Cc2ccc(O)cc2)C(=O)C(=O)N2CCC[C@H]2C(=O)N[C@H](C(N)=O)CSSC(C)(C)[C@H](NC(=O)[C@H](Cc2ccccc2)NC(=O)[C@H](CCCNC(=N)N)NC(=O)CCNC(=O)CCNC(=O)CCNC(=O)CN(C)CCNC(=O)CCC(=O)N[C@@H](CCCNC(=N)N)C(=O)N[C@@H](Cc2ccccc2)C(=O)N[C@@H]2C(=O)N[C@@H]([C@@H](C)O)C(=O)NCC(=O)N[C@@H](Cc3cnc[nH]3)C(=O)N[C@@H](Cc3ccccc3)C(=O)NCC(=O)N(C)CC(=O)N(C)[C@@H](CC(C)C)C(=O)N[C@@H](Cc3ccc(O)cc3)C(=O)C(=O)N3CCC[C@H]3C(=O)N[C@H](C(N)=O)CSSC2(C)C)C(=O)N[C@@H]([C@@H](C)O)C(=O)NCC(=O)N[C@@H](Cc2cnc[nH]2)C(=O)N[C@@H](Cc2ccccc2)C(=O)NCC(=O)N(C)CC(=O)N1C` yielded an IC50 of 2.4 nM.
Still for that read-out and setting: with `CC(C)C[C@@H]1NC(=O)CNC(=O)CNC(=O)[C@H](Cc2ccccc2)NC(=O)[C@H](Cc2cnc[nH]2)NC(=O)CNC(=O)[C@H]([C@@H](C)O)NC(=O)[C@@H](NC(=O)[C@H](Cc2ccccc2)NC(=O)[C@H](CCCNC(=N)N)NC(=O)CCC(=O)NCCN(C)CC(=O)N[C@@H](CCCNC(=N)N)C(=O)N[C@@H](Cc2ccccc2)C(=O)N[C@H]2CSSC[C@@H](C(N)=O)NC(=O)[C@@H]3CCCN3C(=O)C(=O)[C@H](Cc3ccc(O)cc3)NC(=O)[C@H](CC(C)C)NC(=O)CNC(=O)CNC(=O)[C@H](Cc3ccccc3)NC(=O)[C@H](Cc3cnc[nH]3)NC(=O)CNC(=O)[C@H]([C@@H](C)O)NC2=O)CSSC[C@@H](C(N)=O)NC(=O)[C@@H]2CCCN2C(=O)C(=O)[C@H](Cc2ccc(O)cc2)NC1=O` the figure was 3000 nM; with `CC(C)C[C@H]1C(=O)N[C@@H](Cc2ccc(O)cc2)C(=O)C(=O)N2CCC[C@H]2C(=O)N[C@H](C(=O)N[C@@H](CC(N)=O)C(=O)NCC(=O)N2CCC[C@H]2C(N)=O)CCCCNC(=O)C[C@H](NC(=O)[C@H](Cc2ccccc2)NC(=O)CSCCC(=O)NCCC(=O)NCCCN(C)CCCNC(=O)CCNC(=O)CCSCC(=O)N[C@@H](CCC(N)=O)C(=O)N[C@@H](CCCNC(=N)N)C(=O)N[C@@H](Cc2ccccc2)C(=O)N[C@H]2CC(=O)NCCCC[C@@H](C(=O)N[C@@H](CC(N)=O)C(=O)NCC(=O)N3CCC[C@H]3C(N)=O)NC(=O)[C@@H]3CCCN3C(=O)C(=O)[C@H](Cc3ccc(O)cc3)NC(=O)[C@H](CC(C)C)N(C)C(=O)CN(C)C(=O)CNC(=O)[C@H](Cc3ccccc3)NC(=O)[C@H](Cc3cnc[nH]3)NC(=O)CNC(=O)[C@H]([C@@H](C)O)NC2=O)C(=O)N[C@@H]([C@@H](C)O)C(=O)NCC(=O)N[C@@H](Cc2cnc[nH]2)C(=O)N[C@@H](Cc2ccccc2)C(=O)NCC(=O)N(C)CC(=O)N1C` (I: QRFDTGHFG[Sar][NMeL][X1]PKNGP-NH2 / II: FDTGHFG[Sar][NMeL][X1]PKNGP-NH2; lactam I:4-I:14, II:2-II:12; linker I:N-II:N via X3), 2400 nM; with `CC(C)C[C@H]1C(=O)N[C@@H](Cc2ccc(O)cc2)C(=O)C(=O)N2CCC[C@H]2C(=O)N[C@H](C(N)=O)CSSC(C)(C)[C@H](NC(=O)[C@H](Cc2ccccc2)NC(=O)[C@H](CCCNC(=N)N)NC(=O)CCOCCOCCOCCOCCOCCC(=O)N[C@@H](CCCNC(=N)N)C(=O)N[C@@H](Cc2ccccc2)C(=O)N[C@@H]2C(=O)N[C@@H]([C@@H](C)O)C(=O)NCC(=O)N[C@@H](Cc3cnc[nH]3)C(=O)N[C@@H](Cc3ccccc3)C(=O)NCC(=O)N(C)CC(=O)N(C)[C@@H](CC(C)C)C(=O)N[C@@H](Cc3ccc(O)cc3)C(=O)C(=O)N3CCC[C@H]3C(=O)N[C@H](C(N)=O)CSSC2(C)C)C(=O)N[C@@H]([C@@H](C)O)C(=O)NCC(=O)N[C@@H](Cc2cnc[nH]2)C(=O)N[C@@H](Cc2ccccc2)C(=O)NCC(=O)N(C)CC(=O)N1C`, 4.8 nM.
The same measure, in the same setting: with `CC(C)C[C@H]1C(=O)N[C@@H](Cc2ccc(O)cc2)C(=O)C(=O)N2CCC[C@H]2C(=O)N[C@H](C(N)=O)CSSC(C)(C)[C@H](NC(=O)[C@H](Cc2ccccc2)NC(=O)[C@H](CCCNC(=N)N)NC(=O)CCC(=O)N[C@@H](CCCNC(=N)N)C(=O)N[C@@H](Cc2ccccc2)C(=O)N[C@@H]2C(=O)N[C@@H]([C@@H](C)O)C(=O)NCC(=O)N[C@@H](Cc3ccc(N=C(N)N)cc3)C(=O)NCC(=O)N(C)CC(=O)N(C)[C@@H](CC(C)C)C(=O)N[C@@H](Cc3ccc(O)cc3)C(=O)C(=O)N3CCC[C@H]3C(=O)N[C@H](C(N)=O)CSSC2(C)C)C(=O)N[C@@H]([C@@H](C)O)C(=O)NCC(=O)N[C@@H](Cc2ccc(N=C(N)N)cc2)C(=O)NCC(=O)N(C)CC(=O)N1C` (I: RF[Pen]TG[Phe(4-guanidino)]G[Sar][NMeL][X1]PC-NH2 / II: RF[Pen]TG[Phe(4-guanidino)]G[Sar][NMeL][X1]PC-NH2; disulfide I:3-I:12, II:3-II:12; linker I:N-II:N via Suc) the figure was 20 nM; with `CC(C)C[C@H]1C(=O)N[C@@H](Cc2ccc(O)cc2)C(=O)C(=O)N2CCC[C@H]2C(=O)N[C@H](C(N)=O)CSSC(C)(C)[C@H](NC(=O)[C@H](Cc2ccccc2)NC(=O)[C@H](CCCNC(=N)N)NC(=O)CN(C)CCNC(=O)CNC(=O)[C@@H]2CSSC(C)(C)[C@H](NC(=O)[C@H](Cc3ccccc3)NC(=O)[C@@H](N)CCCNC(=N)N)C(=O)N[C@@H]([C@@H](C)O)C(=O)NCC(=O)N[C@@H](Cc3cnc[nH]3)C(=O)N[C@@H](Cc3ccccc3)C(=O)NCC(=O)N(C)CC(=O)N(C)[C@@H](CC(C)C)C(=O)N[C@@H](Cc3ccc(O)cc3)C(=O)C(=O)N3CCC[C@H]3C(=O)N2)C(=O)N[C@@H]([C@@H](C)O)C(=O)NCC(=O)N[C@@H](Cc2cnc[nH]2)C(=O)N[C@@H](Cc2ccccc2)C(=O)NCC(=O)N(C)CC(=O)N1C` (H-RF[Pen]TGHFG[Sar][NMeL][X1]PCG[NHCH2CH2N(Me)CH2CO]RF[Pen]TGHFG[Sar][NMeL][X1]PC-NH2; disulfide 3-13, 18-28), 3.9 nM.
`CC(C)C[C@H]1C(=O)N[C@@H](Cc2ccc(O)cc2)C(=O)C(=O)N2CCC[C@H]2C(=O)N[C@H](C(N)=O)CSSC(C)(C)[C@H](NC(=O)[C@H](Cc2ccccc2)NC(=O)[C@H](CCCNC(=N)N)NC(=O)CN(C)CC(=O)N[C@@H](CCCNC(=N)N)C(=O)N[C@@H](Cc2ccccc2)C(=O)N[C@@H]2C(=O)N[C@@H]([C@@H](C)O)C(=O)NCC(=O)N[C@@H](Cc3cnc[nH]3)C(=O)N[C@@H](Cc3ccccc3)C(=O)NCC(=O)N(C)CC(=O)N(C)[C@@H](CC(C)C)C(=O)N[C@@H](Cc3ccc(O)cc3)C(=O)C(=O)N3CCC[C@H]3C(=O)N[C@H](C(N)=O)CSSC2(C)C)C(=O)N[C@@H]([C@@H](C)O)C(=O)NCC(=O)N[C@@H](Cc2cnc[nH]2)C(=O)N[C@@H](Cc2ccccc2)C(=O)NCC(=O)N(C)CC(=O)N1C`: the half-inhibitory concentration (IC50) came out at 4.7 nM.
Consider `CC(C)C[C@H]1C(=O)N[C@@H](Cc2ccc(O)cc2)C(=O)C(=O)N2CCC[C@H]2C(=O)N[C@H](C(N)=O)CSSC(C)(C)[C@H](NC(=O)[C@H](Cc2ccccc2)NC(=O)[C@H](CCCNC(=N)N)NC(=O)CCC(=O)NCCN(C)CC(=O)N[C@@H](CCCNC(=N)N)C(=O)N[C@@H](Cc2ccccc2)C(=O)N[C@@H]2C(=O)N[C@@H]([C@@H](C)O)C(=O)NCC(=O)N[C@@H](Cc3cnc[nH]3)C(=O)N[C@@H](Cc3ccccc3)C(=O)N[C@H]3CCCN(CC(=O)N(C)[C@@H](CC(C)C)C(=O)N[C@@H](Cc4ccc(O)cc4)C(=O)C(=O)N4CCC[C@H]4C(=O)N[C@H](C(N)=O)CSSC2(C)C)C3=O)C(=O)N[C@@H]([C@@H](C)O)C(=O)NCC(=O)N[C@@H](Cc2cnc[nH]2)C(=O)N[C@@H](Cc2ccccc2)C(=O)N[C@H]2CCCN(CC(=O)N1C)C2=O`, for which the half-maximal inhibitory concentration (IC50) amounted to 3.9 nM.
The same measure, in the same setting: for `CC(C)C[C@H]1C(=O)N[C@@H](Cc2ccc(O)cc2)C(=O)C(=O)N2CCC[C@H]2C(=O)N[C@H](C(N)=O)CSSC(C)(C)[C@H](NC(=O)[C@H](Cc2ccccc2)NC(=O)[C@H](CCCNC(=N)N)NC(=O)CCC(=O)N[C@@H](CCCNC(=N)N)C(=O)N[C@@H](Cc2ccccc2)C(=O)N[C@@H]2C(=O)N[C@@H]([C@@H](C)O)C(=O)NCC(=O)N[C@@H](Cc3cnc[nH]3)C(=O)N[C@@H](Cc3ccccc3)C(=O)NCC(=O)N(C)CC(=O)N(C)[C@@H](CC(C)C)C(=O)N[C@@H](Cc3ccc(O)cc3)C(=O)C(=O)N3CCC[C@H]3C(=O)N[C@H](C(N)=O)CSSC2(C)C)C(=O)N[C@@H]([C@@H](C)O)C(=O)NCC(=O)N[C@@H](Cc2cnc[nH]2)C(=O)N[C@@H](Cc2ccccc2)C(=O)NCC(=O)N(C)CC(=O)N1C` the value was 2.4 nM.
Still for that read-out and setting: for `CC(C)C[C@H]1C(=O)N[C@@H](Cc2ccc(O)cc2)C(=O)C(=O)N2CCC[C@H]2C(=O)N[C@H](C(N)=O)CSSC(C)(C)[C@H](NC(=O)[C@H](Cc2ccccc2)NC(=O)[C@H](CCCNC(=N)N)NC(=O)CC(C)(C)CC(=O)N[C@@H](CCCNC(=N)N)C(=O)N[C@@H](Cc2ccccc2)C(=O)N[C@@H]2C(=O)N[C@@H]([C@@H](C)O)C(=O)NCC(=O)N[C@@H](Cc3cnc[nH]3)C(=O)N[C@@H](Cc3ccccc3)C(=O)NCC(=O)N(C)CC(=O)N(C)[C@@H](CC(C)C)C(=O)N[C@@H](Cc3ccc(O)cc3)C(=O)C(=O)N3CCC[C@H]3C(=O)N[C@H](C(N)=O)CSSC2(C)C)C(=O)N[C@@H]([C@@H](C)O)C(=O)NCC(=O)N[C@@H](Cc2cnc[nH]2)C(=O)N[C@@H](Cc2ccccc2)C(=O)NCC(=O)N(C)CC(=O)N1C` the value was 5 nM.
